The target of the assay is α7-subtype of nicotinic receptors (Rattus norvegicus, UniProt Q05941). As to the kind of experiment: biochemical. The class given is binding.

Structures are written as SMILES. Where a name gives a salt, the structure may show the parent alone.

From patent US20100280015A1 (priority 2007, published 2010) come the findings set out here.

α7-subtype of nicotinic receptors, sequence (Q05941 23-502): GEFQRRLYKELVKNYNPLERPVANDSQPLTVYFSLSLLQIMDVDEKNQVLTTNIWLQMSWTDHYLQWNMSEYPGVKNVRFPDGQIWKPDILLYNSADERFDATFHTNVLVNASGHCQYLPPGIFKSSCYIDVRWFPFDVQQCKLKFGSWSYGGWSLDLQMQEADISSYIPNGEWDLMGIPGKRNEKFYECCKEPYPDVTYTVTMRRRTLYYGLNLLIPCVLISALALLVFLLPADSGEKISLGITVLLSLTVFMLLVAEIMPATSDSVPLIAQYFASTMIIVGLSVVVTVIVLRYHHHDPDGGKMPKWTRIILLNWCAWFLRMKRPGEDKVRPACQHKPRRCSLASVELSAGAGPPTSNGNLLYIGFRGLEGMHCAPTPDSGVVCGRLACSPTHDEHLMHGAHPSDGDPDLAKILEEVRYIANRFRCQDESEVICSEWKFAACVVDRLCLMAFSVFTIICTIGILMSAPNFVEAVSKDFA

Compound `c1ccc(Oc2ccccc2-c2nnc(N3CCN4CCC3CC4)o2)cc1` [Compound A1, 4-[5-(2-Phenoxy-phenyl)-[1,3,4]oxadiazol-2-yl]-1,4-diaza-bicyclo[3.2.2]nonane fumaric acid salt] yielded an IC50 below 100 nM.
For the compound `c1ccc(Oc2cccc(-c3nnc(N4CCN5CCC4CC5)o3)c2)cc1` [Compound A2, 4-[5-(3-Phenoxy-phenyl)-[1,3,4]oxadiazol-2-yl]-1,4-diaza-bicyclo[3.2.2]nonane fumaric acid salt], the IC50 is below 1000 nM.
